What was measured:
CYP126 = CYP126 (Mycobacterium tuberculosis, UniProt P9WPN9); conditions: fragment 1 mM, P450 4-6 µM; relative to DMSO (418 nm)
CYP121 = CYP121 (Mycobacterium tuberculosis, UniProt P9WPP7); conditions: fragment 1 mM, P450 4-6 µM; relative to DMSO (417 nm)
CYP124 = CYP124 (Mycobacterium tuberculosis, UniProt P9WPP3); conditions: fragment 1 mM, P450 4-6 µM; relative to DMSO (419 nm)
CYP125 = CYP125 (Mycobacterium tuberculosis, UniProt P9WPP1); format: binding; conditions: fragment 1 mM, P450 4-6 µM; Soret shift relative to DMSO (393 nm)
CYP142 = CYP142 (Mycobacterium tuberculosis, UniProt P9WPL5); conditions: fragment 1 mM, P450 4-6 µM; relative to DMSO (418.5 nm)
CYP143 = CYP143 (Mycobacterium tuberculosis, UniProt P9WPL3); conditions: fragment 1 mM, P450 4-6 µM; relative to DMSO (416 nm)
CYP144 = CYP144 (Mycobacterium tuberculosis, UniProt P9WPL1); conditions: fragment 1 mM, P450 4-6 µM; relative to DMSO (421 nm)
Sequence of CYP144 (P9WPL1 whole entry, the tested form may be a part): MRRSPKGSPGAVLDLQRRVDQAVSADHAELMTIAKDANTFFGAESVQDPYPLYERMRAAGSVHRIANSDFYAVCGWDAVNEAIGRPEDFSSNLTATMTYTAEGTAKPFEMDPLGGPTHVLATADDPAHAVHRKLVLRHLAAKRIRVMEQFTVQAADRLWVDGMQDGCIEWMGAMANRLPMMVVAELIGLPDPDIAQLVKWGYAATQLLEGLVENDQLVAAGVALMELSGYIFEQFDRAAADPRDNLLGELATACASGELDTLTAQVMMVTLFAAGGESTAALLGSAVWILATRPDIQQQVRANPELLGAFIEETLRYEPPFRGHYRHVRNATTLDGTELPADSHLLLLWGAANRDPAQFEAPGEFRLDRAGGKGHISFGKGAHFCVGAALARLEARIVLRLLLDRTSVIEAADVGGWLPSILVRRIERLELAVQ

Sequence of CYP121 (P9WPP7 whole entry, the tested form may be a part): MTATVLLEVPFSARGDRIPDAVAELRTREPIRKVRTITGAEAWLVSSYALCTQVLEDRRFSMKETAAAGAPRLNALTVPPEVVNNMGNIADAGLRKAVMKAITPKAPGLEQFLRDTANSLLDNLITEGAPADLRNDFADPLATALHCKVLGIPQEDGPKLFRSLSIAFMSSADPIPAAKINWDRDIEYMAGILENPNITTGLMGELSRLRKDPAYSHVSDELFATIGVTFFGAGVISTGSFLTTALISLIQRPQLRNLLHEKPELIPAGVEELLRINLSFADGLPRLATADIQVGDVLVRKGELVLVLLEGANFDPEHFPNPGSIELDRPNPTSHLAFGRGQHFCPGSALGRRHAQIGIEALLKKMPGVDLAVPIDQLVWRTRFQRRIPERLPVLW
Sequence of CYP143 (P9WPL3 whole entry, the tested form may be a part): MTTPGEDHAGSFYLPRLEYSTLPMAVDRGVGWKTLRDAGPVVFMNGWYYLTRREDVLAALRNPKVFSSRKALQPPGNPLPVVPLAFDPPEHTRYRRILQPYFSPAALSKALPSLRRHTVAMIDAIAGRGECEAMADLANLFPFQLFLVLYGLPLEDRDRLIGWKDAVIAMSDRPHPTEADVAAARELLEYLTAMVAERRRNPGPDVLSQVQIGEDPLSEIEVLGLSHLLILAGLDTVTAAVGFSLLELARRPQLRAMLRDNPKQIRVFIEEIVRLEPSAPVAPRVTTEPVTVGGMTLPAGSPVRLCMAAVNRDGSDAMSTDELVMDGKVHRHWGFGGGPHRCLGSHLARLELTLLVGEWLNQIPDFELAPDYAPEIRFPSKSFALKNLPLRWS
Sequence of CYP125 (P9WPP1 whole entry, the tested form may be a part): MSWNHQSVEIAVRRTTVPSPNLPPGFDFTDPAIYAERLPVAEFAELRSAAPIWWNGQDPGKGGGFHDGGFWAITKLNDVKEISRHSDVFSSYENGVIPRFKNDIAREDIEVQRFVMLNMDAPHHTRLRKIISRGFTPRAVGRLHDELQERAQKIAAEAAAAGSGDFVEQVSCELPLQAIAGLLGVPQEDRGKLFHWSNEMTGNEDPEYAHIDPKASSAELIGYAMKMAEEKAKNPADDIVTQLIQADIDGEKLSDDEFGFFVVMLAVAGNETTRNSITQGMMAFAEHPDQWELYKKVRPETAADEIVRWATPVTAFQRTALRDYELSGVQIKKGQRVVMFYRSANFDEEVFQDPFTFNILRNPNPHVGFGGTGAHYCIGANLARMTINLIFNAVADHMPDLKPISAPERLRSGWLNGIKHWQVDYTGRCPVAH
Sequence of CYP124 (P9WPP3 whole entry, the tested form may be a part): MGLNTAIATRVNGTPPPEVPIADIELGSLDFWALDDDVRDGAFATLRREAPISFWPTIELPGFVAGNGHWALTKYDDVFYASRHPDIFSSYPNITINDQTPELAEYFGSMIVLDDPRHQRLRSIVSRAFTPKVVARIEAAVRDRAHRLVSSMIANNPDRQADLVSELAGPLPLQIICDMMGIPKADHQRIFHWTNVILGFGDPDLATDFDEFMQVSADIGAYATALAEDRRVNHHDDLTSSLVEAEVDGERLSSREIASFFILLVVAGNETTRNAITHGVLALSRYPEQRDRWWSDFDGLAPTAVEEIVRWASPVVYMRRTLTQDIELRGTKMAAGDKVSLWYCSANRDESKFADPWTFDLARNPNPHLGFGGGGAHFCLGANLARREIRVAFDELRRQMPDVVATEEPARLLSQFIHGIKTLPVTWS
Sequence of CYP142 (P9WPL5 whole entry, the tested form may be a part): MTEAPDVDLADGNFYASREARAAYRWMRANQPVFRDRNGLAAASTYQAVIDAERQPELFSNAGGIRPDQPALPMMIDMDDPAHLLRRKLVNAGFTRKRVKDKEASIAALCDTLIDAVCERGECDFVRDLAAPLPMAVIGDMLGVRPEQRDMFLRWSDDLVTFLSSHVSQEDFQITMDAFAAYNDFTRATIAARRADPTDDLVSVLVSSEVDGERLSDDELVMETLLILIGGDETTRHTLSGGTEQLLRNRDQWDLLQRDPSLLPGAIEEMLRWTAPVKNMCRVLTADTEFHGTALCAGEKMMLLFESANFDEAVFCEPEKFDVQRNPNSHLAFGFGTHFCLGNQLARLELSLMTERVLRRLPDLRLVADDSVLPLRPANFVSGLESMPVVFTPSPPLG
Sequence of CYP126 (P9WPN9 whole entry, the tested form may be a part): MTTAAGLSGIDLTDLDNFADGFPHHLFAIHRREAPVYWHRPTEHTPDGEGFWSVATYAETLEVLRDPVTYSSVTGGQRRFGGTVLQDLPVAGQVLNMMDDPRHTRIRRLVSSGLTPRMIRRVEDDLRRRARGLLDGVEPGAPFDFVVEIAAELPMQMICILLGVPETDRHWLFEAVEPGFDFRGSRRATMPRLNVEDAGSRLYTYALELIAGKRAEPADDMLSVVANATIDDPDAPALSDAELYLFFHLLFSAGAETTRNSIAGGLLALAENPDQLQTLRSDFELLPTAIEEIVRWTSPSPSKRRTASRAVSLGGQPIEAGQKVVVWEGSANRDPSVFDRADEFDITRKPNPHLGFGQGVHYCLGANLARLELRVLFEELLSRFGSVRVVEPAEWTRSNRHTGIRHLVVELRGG

## c1ccc(-c2cc[nH]n2)cc1 [compound 35]
CYP126
  Δλmax (nm) CYP126, fragment screen: 0 nm
CYP121
  Δλmax (nm) CYP121, fragment screen: 0 nm
CYP124
  Δλmax (nm) CYP124, fragment screen: -1 nm
CYP125
  Δλmax (nm) CYP125, fragment screen: -2 nm
CYP142
  Δλmax (nm) CYP142, fragment screen: 0 nm
CYP143
  Δλmax (nm) CYP143, fragment screen: 1 nm
CYP144
  Δλmax (nm) CYP144, fragment screen: 0 nm

## Nc1ccc(Oc2ccccc2)nc1 [compound 48]
CYP126
  Δλmax (nm) CYP126, fragment screen: 2 nm
CYP121
  Δλmax (nm) CYP121, fragment screen: 1 nm
CYP124
  Δλmax (nm) CYP124, fragment screen: -1 nm
CYP125
  Δλmax (nm) CYP125, fragment screen: 0 nm
CYP142
  Δλmax (nm) CYP142, fragment screen: 1.5 nm
CYP143
  Δλmax (nm) CYP143, fragment screen: 0.5 nm
CYP144
  Δλmax (nm) CYP144, fragment screen: 0 nm

## Oc1cccnc1O [compound 42]
CYP126
  Δλmax (nm) CYP126, fragment screen: 0 nm
CYP121
  Δλmax (nm) CYP121, fragment screen: -1 nm
CYP124
  Δλmax (nm) CYP124, fragment screen: -1 nm
CYP125
  Δλmax (nm) CYP125, fragment screen: 0 nm
CYP142
  Δλmax (nm) CYP142, fragment screen: 0 nm
CYP143
  Δλmax (nm) CYP143, fragment screen: 0.5 nm
CYP144
  Δλmax (nm) CYP144, fragment screen: 0 nm

## O=C(O)c1ccc(-n2cccn2)cc1 [compound 54]
CYP126
  Δλmax (nm) CYP126, fragment screen: -1 nm
CYP121
  Δλmax (nm) CYP121, fragment screen: 0 nm
CYP124
  Δλmax (nm) CYP124, fragment screen: 0 nm
CYP125
  Δλmax (nm) CYP125, fragment screen: 0 nm
CYP142
  Δλmax (nm) CYP142, fragment screen: 0 nm
CYP143
  Δλmax (nm) CYP143, fragment screen: -0.5 nm
CYP144
  Δλmax (nm) CYP144, fragment screen: 0 nm

## Nc1cc(-c2ccc(Cl)cc2)n[nH]1 [compound 12]
CYP126
  Δλmax (nm) CYP126, fragment screen: 1 nm
CYP121
  Δλmax (nm) CYP121, fragment screen: 2 nm
CYP124
  Δλmax (nm) CYP124, fragment screen: -1 nm
CYP125
  Δλmax (nm) CYP125, fragment screen: -2 nm
CYP142
  Δλmax (nm) CYP142, fragment screen: 0 nm
CYP143
  Δλmax (nm) CYP143, fragment screen: 0 nm
CYP144
  Δλmax (nm) CYP144, fragment screen: 0 nm

## CC(C)c1cc(C(=O)O)[nH]n1 [compound 46]
CYP126
  Δλmax (nm) CYP126, fragment screen: 0 nm
CYP121
  Δλmax (nm) CYP121, fragment screen: 0 nm
CYP124
  Δλmax (nm) CYP124, fragment screen: 0 nm
CYP125
  Δλmax (nm) CYP125, fragment screen: 0 nm
CYP142
  Δλmax (nm) CYP142, fragment screen: 0 nm
CYP143
  Δλmax (nm) CYP143, fragment screen: -0.5 nm
CYP144
  Δλmax (nm) CYP144, fragment screen: 0 nm

## N#Cc1ccncc1 [compound 41]
CYP126
  Δλmax (nm) CYP126, fragment screen: 0 nm
CYP121
  Δλmax (nm) CYP121, fragment screen: 0 nm
CYP124
  Δλmax (nm) CYP124, fragment screen: 0 nm
CYP125
  Δλmax (nm) CYP125, fragment screen: 0 nm
CYP142
  Δλmax (nm) CYP142, fragment screen: 0 nm
CYP143
  Δλmax (nm) CYP143, fragment screen: -0.5 nm
CYP144
  Δλmax (nm) CYP144, fragment screen: 0 nm

## O=c1ccc(Br)c[nH]1 [compound 58]
CYP126
  Δλmax (nm) CYP126, fragment screen: -1 nm
CYP121
  Δλmax (nm) CYP121, fragment screen: 0 nm
CYP124
  Δλmax (nm) CYP124, fragment screen: 0 nm
CYP125
  Δλmax (nm) CYP125, fragment screen: 0 nm
CYP142
  Δλmax (nm) CYP142, fragment screen: 0 nm
CYP143
  Δλmax (nm) CYP143, fragment screen: 0.5 nm
CYP144
  Δλmax (nm) CYP144, fragment screen: 0 nm

## Cc1cc(C)n(-c2ccc(N)cc2)n1 [compound 16]
CYP126
  Δλmax (nm) CYP126, fragment screen: 0 nm
CYP121
  Δλmax (nm) CYP121, fragment screen: -1 nm
CYP124
  Δλmax (nm) CYP124, fragment screen: 0 nm
CYP125
  Δλmax (nm) CYP125, fragment screen: 0 nm
CYP142
  Δλmax (nm) CYP142, fragment screen: 0 nm
CYP143
  Δλmax (nm) CYP143, fragment screen: 0.5 nm
CYP144
  Δλmax (nm) CYP144, fragment screen: 0 nm

## c1ccc2c(c1)CCNC2 [compound 39]
CYP126
  Δλmax (nm) CYP126, fragment screen: 0 nm
CYP121
  Δλmax (nm) CYP121, fragment screen: 0 nm
CYP124
  Δλmax (nm) CYP124, fragment screen: 2 nm
CYP125
  Δλmax (nm) CYP125, fragment screen: 0 nm
CYP142
  Δλmax (nm) CYP142, fragment screen: 1.5 nm
CYP143
  Δλmax (nm) CYP143, fragment screen: 1 nm
CYP144
  Δλmax (nm) CYP144, fragment screen: 0 nm

## Nc1ccc(Br)cn1 [compound 23]
CYP126
  Δλmax (nm) CYP126, fragment screen: 0 nm
CYP121
  Δλmax (nm) CYP121, fragment screen: -1 nm
CYP124
  Δλmax (nm) CYP124, fragment screen: 0 nm
CYP125
  Δλmax (nm) CYP125, fragment screen: 0 nm
CYP142
  Δλmax (nm) CYP142, fragment screen: 0 nm
CYP143
  Δλmax (nm) CYP143, fragment screen: 0.5 nm
CYP144
  Δλmax (nm) CYP144, fragment screen: 0 nm

## OCc1ccc(-c2ccncc2)cc1 [compound 8]
CYP126
  Δλmax (nm) CYP126, fragment screen: 3 nm
CYP121
  Δλmax (nm) CYP121, fragment screen: 1 nm
CYP124
  Δλmax (nm) CYP124, fragment screen: 1 nm
CYP125
  Δλmax (nm) CYP125, fragment screen: 25 nm
CYP142
  Δλmax (nm) CYP142, fragment screen: 0 nm
CYP143
  Δλmax (nm) CYP143, fragment screen: 1 nm
CYP144
  Δλmax (nm) CYP144, fragment screen: 0 nm

From article PMC12305662, “Fragment-Based Development of Small Molecule Inhibitors Targeting Mycobacterium tuberculosis Cholesterol Metabolism” (Journal of Medicinal Chemistry, 2025)
